Reference: paper PMC7037682, “Herb–Drug Interaction of Red Ginseng Extract and Ginsenoside Rc with Valsartan in Rats” (Molecules, 2020)
Where two headings read alike, the source gives them in different places.

Key:
[1] = Plasma pharmacokinetics of ginsenosides in rats after 1-week repeated RGE; conditions: for detection in rat plasma: LC-MS/MS; for maximum plasma concentration (molar): after RGE 1.5 g/kg/day po for 7 days
Description: The rats were randomly divided into the control and RGE groups. The RGE group received a RGE suspension (1.5 g/mL/kg/day, in distilled water) for 7 days via oral gavage. The control group received distilled water for 7 days via oral gavage. After 1 h following the last RGE treatment, valsartan was injected intravenously to both groups via the tail vein at 1 mg/mL/kg (dissolved in DMSO: saline = 2:8, v/v). […] After centrifugation of the blood samples at 16,000× g for 10 min, aliquots (50 μL each) of plasma samples were stored at −80 °C until the analysis of ginsenosides and valsartan.
The residue was reconstituted with 100 μL of 70% methanol consisting of 0.1% formic acid. An aliquot (20 μL) from the sample was injected into the LC-MS/MS system.
After freezing the aqueous layer at −80 °C for 2 h, the upper organic layer was transferred to a clean tube and evaporated to dryness. […] An aliquot (20 μL) from the sample was injected into the LC-MS/MS system. The samples were eluted through an Omega Polar C18 column (2.1 mm × 100 mm, 3 µm particle size) (Phenomenex, Torrance, CA, USA) using a mobile phase consisting of 0.1% formic acid in water: 0.1% formic acid in methanol (15:85, v/v) at a flow rate of 0.2 mL/min.
Pharmacokinetic parameters were calculated from plasma concentration-time profile using non-compartment analysis of WinNonlin (version 5.1; Pharsights, Cary, NC, USA). The statistical significance was assessed by t-test using Statistical Package for the Social Sciences (version 24.0; SPSS Inc., Chicago, IL, USA).

OAT3 = target: T1, OAT3 (Homo sapiens, UniProt Q8TCC7); assay: Inhibition of OAT3-mediated [3H]ES uptake in HEK293-OAT3 cells
T1 sequence (Q8TCC7 1-542): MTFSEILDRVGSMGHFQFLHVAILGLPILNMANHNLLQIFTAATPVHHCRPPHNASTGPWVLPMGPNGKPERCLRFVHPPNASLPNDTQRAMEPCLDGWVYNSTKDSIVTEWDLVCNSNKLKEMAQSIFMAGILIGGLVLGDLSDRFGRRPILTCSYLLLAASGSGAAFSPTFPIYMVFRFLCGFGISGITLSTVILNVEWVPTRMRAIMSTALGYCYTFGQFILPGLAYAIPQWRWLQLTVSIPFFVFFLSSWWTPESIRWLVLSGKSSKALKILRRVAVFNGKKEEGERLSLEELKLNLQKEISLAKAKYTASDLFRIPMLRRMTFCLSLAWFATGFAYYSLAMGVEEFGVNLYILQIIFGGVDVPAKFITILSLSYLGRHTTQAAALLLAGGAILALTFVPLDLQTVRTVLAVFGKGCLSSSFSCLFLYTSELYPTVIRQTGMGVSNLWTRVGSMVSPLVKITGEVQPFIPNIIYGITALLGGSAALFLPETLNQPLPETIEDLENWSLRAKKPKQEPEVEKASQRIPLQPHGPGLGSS
Description: (§1) HEK293 cells overexpressing the OCT1, OCT2, OAT1, OAT3, OATP1B1, and OATP1B3 transporters (HEK293-OCT1, -OCT2, -OAT1, -OAT3, -OATP1B1, and -OATP1B3, respectively) and HEK293-mock cells (Corning Life Sciences; Woburn, MA, USA) were used and characterized as previously described.
(§2) HEK293 cells overexpressing drug transporters and HEK293-mock cells were seeded in poly-D-lysine-coated 96-well plates at a density of 10^5 cells/well and were cultured in DMEM supplemented with 10% FBS, 5 mM non-essential amino acids, and 2 mM sodium butyrate in a humidified atmosphere with 8% CO2 at 37 °C.
(§3) To examine the effects of ginsenosides and typical inhibitors on transporter activity, aliquots (100 μL) of HBSS containing the probe substrate and ginsenosides or typical inhibitors were added to the cells after aspirating pre-incubated HBSS. The concentrations and probe substrates were as follows: 0.1 μM [^3H]MPP^+ for OCT1 and OCT2, 0.1 μM [^3H]PAH for OAT1, 0.1 μM [^3H]ES for OAT3 and OATP1B1, and 0.1 μM [^3H]EG for OATP1B3. […] Then the uptake of probe substrates into HEK293-mock cells and HEK293-OCT1, -OCT2, -OAT1, -OAT3, -OATP1B1, and -OATP1B3 cells in the presence and absence of typical inhibitor or each ginsenoside with previously described concentration range was measured for 5 min. Immediately after placing the plates on ice, the cells were washed three times with 100 μL of ice-cold HBSS, followed by lysing with 50 μL of 10% SDS solution and mixing with 150 μL of Optiphase cocktail solution (Perkin Elmer Inc., Boston, MA, USA). The radioactivity of the probe substrates in the cells was determined using a liquid scintillation counter.
(§4) In the inhibition studies, the uptake rate of substrate by HEK293 cells overexpressing the respective transporters was used as the control (100%) and the uptake rate of substrates in the presence of typical inhibitors or ginsenosides expressed as a percentage of the control. The inhibition data were fitted to an inhibitory effect model using Sigma plot (version 10.0; Systat Software Inc., San Jose, CA, USA). IC50 value indicated the half-maximal inhibitory concentration of the inhibitor.

OCT2 = target: T2, OCT2 (Homo sapiens, UniProt O15244); assay: Inhibition of OCT2-mediated [3H]MPP+ uptake in HEK293-OCT2 cells
T2 sequence (O15244 1-555): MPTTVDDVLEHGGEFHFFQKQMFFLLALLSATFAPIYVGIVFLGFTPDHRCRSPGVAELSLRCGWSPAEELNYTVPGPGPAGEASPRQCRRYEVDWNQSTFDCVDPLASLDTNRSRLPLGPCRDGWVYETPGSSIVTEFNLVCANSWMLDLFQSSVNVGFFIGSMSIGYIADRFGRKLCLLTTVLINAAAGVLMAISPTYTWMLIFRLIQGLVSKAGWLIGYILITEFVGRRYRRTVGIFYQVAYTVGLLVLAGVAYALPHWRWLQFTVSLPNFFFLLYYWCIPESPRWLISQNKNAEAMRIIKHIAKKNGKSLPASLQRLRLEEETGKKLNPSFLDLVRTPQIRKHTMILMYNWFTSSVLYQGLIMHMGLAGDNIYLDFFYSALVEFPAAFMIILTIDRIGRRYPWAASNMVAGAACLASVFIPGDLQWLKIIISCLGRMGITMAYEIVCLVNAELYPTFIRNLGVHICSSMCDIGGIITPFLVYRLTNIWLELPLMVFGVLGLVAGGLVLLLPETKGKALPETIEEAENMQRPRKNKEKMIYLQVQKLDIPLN
Description: as §1, §2, §3, §4

[2] = after RGE 1.5 g/kg/day po for 1 week
[3] = rat plasma, 0 to 48 h, after RGE 1.5 g/kg/day po for 1 week
[4] = rat plasma, after RGE 1.5 g/kg/day po for 1 week
[5] = read-out: IC50 OAT3, HEK293-OAT3, 0.1 μM [3H]ES uptake, 5 min
[6] = read-out: IC50 OCT2, HEK293-OCT2, 0.1 μM [3H]MPP+ uptake, 5 min

Compound	detection in rat plasma [1, 2]	AUC [1, 3] [ng·h/mL]	Cmax [1, 4] [ng/mL]	MRT [1, 4] [h]	T1/2 [1, 4] [h]	Tmax [1, 4] [h]	maximum plasma concentration (molar) ([1]; rat plasma) [nM]	IC50 (OAT3; [5]) [µM]	IC50 (OCT2; [6]) [µM]	AUC ([1]; rat, plasma, po, 1.5 g/kg/day) [ng·h/mL]	Cmax ([1]; rat, plasma, po, 1.5 g/kg/day) [ng/mL]	MRT ([1]; rat, plasma, po, 1.5 g/kg/day) [h]	Tmax ([1]; rat, plasma, po, 1.5 g/kg/day) [h]	half-life ([1]; rat, plasma, po, 1.5 g/kg/day) [h]	IC50 (OAT3) [µM]	IC50 (OCT2) [µM]
CC(C)=CCCC(C)(O)[C@H]1CC[C@]2(C)[C@@H]1[C@H](O)C[C@@H]1[C@@]3(C)CC[C@H](O)C(C)(C)[C@@H]3CC[C@]12C (stereo in doubt) [PPD, protopanaxadiol]	detected	542.01 ± 141.09	20.56 ± 9.47	21.56 ± 3.31	26.95 ± 18.33	16.50 ± 12.48	48.4	> 100	> 100							
CC(C)=CCC[C@](C)(O[C@@H]1O[C@H](CO)[C@@H](O)[C@H](O)[C@H]1O)[C@H]1CC[C@]2(C)[C@@H]1[C@H](O)C[C@@H]1[C@@]3(C)CC[C@H](O)C(C)(C)[C@@H]3CC[C@]12C [Compound K, compound K]	not detected							> 100	> 100							
CC(C)=CCC[C@](C)(O)[C@H]1CC[C@]2(C)[C@@H]1[C@H](O)C[C@@H]1[C@@]3(C)CC[C@H](O)C(C)(C)[C@@H]3[C@@H](O)C[C@]12C [PPT, protopanaxatriol]	detected	429.91 ± 105.75	16.97 ± 8.99	23.12 ± 2.26	46.38 ± 13.27	16.50 ± 12.48	38.5	> 100	> 100							
CC(C)=CCC[C@](C)(O[C@@H]1O[C@H](CO[C@@H]2O[C@H](CO)[C@@H](O)[C@H](O)[C@H]2O)[C@@H](O)[C@H](O)[C@H]1O)[C@H]1CC[C@]2(C)[C@@H]1[C@H](O)C[C@@H]1[C@@]3(C)CC[C@H](O[C@@H]4O[C@H](CO)[C@@H](O)[C@H](O)[C@H]4O[C@@H]4O[C@H](CO)[C@@H](O)[C@H](O)[C@H]4O)C(C)(C)[C@@H]3CC[C@]12C [Rb1, ginsenoside Rb1]										455 ± 111	17.8 ± 2.34	17.1 ± 2.09	3.33 ± 1.15	16.9 ± 5.81	> 100	> 100
CC(C)=CCC[C@](C)(O[C@@H]1O[C@H](CO[C@@H]2OC[C@H](O)[C@H](O)[C@H]2O)[C@@H](O)[C@H](O)[C@H]1O)[C@H]1CC[C@]2(C)[C@@H]1[C@H](O)C[C@@H]1[C@@]3(C)CC[C@H](O[C@@H]4O[C@H](CO)[C@@H](O)[C@H](O)[C@H]4O[C@@H]4O[C@H](CO)[C@@H](O)[C@H](O)[C@H]4O)C(C)(C)[C@@H]3CC[C@]12C [Rb2, ginsenoside Rb2]							9.1			283 ± 58.9	10 ± 1.04	18.6 ± 1.43	3.33 ± 1.15	30.2 ± 5.48	> 100	> 100
CC(C)=CCC[C@](C)(O[C@@H]1O[C@H](CO[C@@H]2O[C@@H](CO)[C@H](O)[C@H]2O)[C@@H](O)[C@H](O)[C@H]1O)[C@H]1CC[C@]2(C)[C@@H]1[C@H](O)C[C@@H]1[C@@]3(C)CC[C@H](O[C@@H]4O[C@H](CO)[C@@H](O)[C@H](O)[C@H]4O[C@@H]4O[C@H](CO)[C@@H](O)[C@H](O)[C@H]4O)C(C)(C)[C@@H]3CC[C@]12C [Rc, ginsenoside Rc]							10.6			321 ± 97.2	11.7 ± 2.49	18.4 ± 1.89	3.33 ± 1.15	24.2 ± 7.51	> 100	> 100
CC(C)=CCC[C@](C)(O[C@@H]1O[C@H](CO)[C@@H](O)[C@H](O)[C@H]1O)[C@H]1CC[C@]2(C)[C@@H]1[C@H](O)C[C@@H]1[C@@]3(C)CC[C@H](O[C@@H]4O[C@H](CO)[C@@H](O)[C@H](O)[C@H]4O[C@@H]4O[C@H](CO)[C@@H](O)[C@H](O)[C@H]4O)C(C)(C)[C@@H]3CC[C@]12C [Rd, ginsenoside Rd]							5.3			164 ± 39.1	5.1 ± 0.74	20.8 ± 1.68	2.17 ± 1.76	43.5 ± 17.5	> 100	> 100
CC(C)=CCC[C@](C)(O[C@@H]1O[C@H](CO)[C@@H](O)[C@H](O)[C@H]1O)[C@H]1CC[C@]2(C)[C@@H]1[C@H](O)C[C@@H]1[C@@]3(C)CC[C@H](O)C(C)(C)[C@@H]3[C@@H](O[C@@H]3O[C@H](CO)[C@@H](O)[C@H](O)[C@H]3O[C@@H]3O[C@@H](C)[C@H](O)[C@@H](O)[C@H]3O)C[C@]12C [Re, ginsenoside Re]	not detected														> 100	> 100
CC(C)=CCC[C@](C)(O[C@@H]1O[C@H](CO)[C@@H](O)[C@H](O)[C@H]1O)[C@H]1CC[C@]2(C)[C@@H]1[C@H](O)C[C@@H]1[C@@]3(C)CC[C@H](O)C(C)(C)[C@@H]3[C@@H](O[C@@H]3O[C@H](CO)[C@@H](O)[C@H](O)[C@H]3O)C[C@]12C [Rg1, ginsenoside Rg1]	not detected														> 100	> 100
CC(C)=CCC[C@](C)(O)[C@H]1CC[C@]2(C)[C@@H]1[C@H](O)C[C@@H]1[C@@]3(C)CC[C@H](O[C@@H]4O[C@H](CO)[C@@H](O)[C@H](O)[C@H]4O[C@@H]4O[C@H](CO)[C@@H](O)[C@H](O)[C@H]4O)C(C)(C)[C@@H]3CC[C@]12C [Rg3, ginsenoside Rg3]	not detected							> 100	> 100							
CC(C)=CCC[C@](C)(O)[C@H]1CC[C@]2(C)[C@@H]1[C@H](O)C[C@@H]1[C@@]3(C)CC[C@H](O)C(C)(C)[C@@H]3[C@@H](O[C@@H]3O[C@H](CO)[C@@H](O)[C@H](O)[C@H]3O)C[C@]12C [Rh1, ginsenoside Rh1]	not detected														> 100	> 100
